Results: patent US10736968B2, “Cellular signalling inhibitors, their formulations and methods thereof” (INVICTUS ONCOLOGY PVT. LTD., priority 2016, dated 2020)

Test system: macrophages
Test: Repolarization of IL4-skewed M2 macrophages to M1-like state after washout (FACS)
Assay type: cell-based
Settings: IL4 24 hours, inhibitor 4 hours, washed, fresh media 12-72 hours
Method: Activity Studies of Compound of Formula I • Efficacy of BLN101 vs BLZ945 on the ability to inhibit CSF1R in vitro is studied. RAW264.7 cells are treated with BLZ945 (67 nM) or BLN101 (67 nM) for different time points, at the end of which the cells were exposed to CSF1 (10 ng/ml) for 20 min. The cells were then lysed and analyzed for phosphorylated CSF1R levels. […] Efficacy of BLN101 (in formulation AK750) vs BLZ945 on increase in iNOS expression in vitro is studied. It is observed that exposure to Tumor Conditioned Media over 24 h decreases INOS levels. Measurement of the expression of iNOS in RAW264.7 cells at different time points after treatment with B-16-tumour conditioned media followed by BLZ-945 or BLN101 (as AK750 formulation) treatment across different time points. […] Treatment of monocytes with IL4 is known to facilitate the differentiation of monocytes into macrophages. Further, activation of CSF1R skews it to a M2 phenotype. […] At different time points analysis of the cells for expression of markers CD11b+CD206+, CD11b+MHC-II+, CD11b+CD86+ and CD11b+CD80+ on the cells using flow cytometry. […] (FIG. 4). […] At different time-points, the cells are harvested and analyzed the population for M1 (MHCII+, CD86+, CD80+) or M2 (CD206+) markers using fluorescence activated cell sorting (FIG. 5d). […]

Compound: CNC(=O)c1cc(Oc2ccc3nc(N[C@@H]4CCCC[C@H]4O)sc3c2)ccn1 [BLZ-945]
- M1 markers (MHCII+, CD86+, CD80+): did not increase the M1 markers
- M2 phenotype (CD206+): at early time-points is observed, but this effect was lost at later time points
